The experiment deals with T1, Human M4 (Homo sapiens, UniProt P08173).
T1 construct: expressed in transfected cells
T1 sequence (P08173 1-479): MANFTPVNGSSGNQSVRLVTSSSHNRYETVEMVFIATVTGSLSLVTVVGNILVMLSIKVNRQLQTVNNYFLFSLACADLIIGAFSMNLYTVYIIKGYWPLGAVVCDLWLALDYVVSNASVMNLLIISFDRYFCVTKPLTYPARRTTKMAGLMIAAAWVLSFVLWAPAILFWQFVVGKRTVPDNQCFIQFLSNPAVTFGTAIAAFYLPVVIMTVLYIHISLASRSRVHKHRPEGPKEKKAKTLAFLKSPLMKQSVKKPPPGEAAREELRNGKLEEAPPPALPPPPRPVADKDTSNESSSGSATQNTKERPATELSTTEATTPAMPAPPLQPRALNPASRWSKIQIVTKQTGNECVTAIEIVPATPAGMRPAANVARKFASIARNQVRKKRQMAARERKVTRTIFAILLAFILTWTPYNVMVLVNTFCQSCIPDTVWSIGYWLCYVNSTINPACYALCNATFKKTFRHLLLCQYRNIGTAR
The experiment can be described thus: mAChR M4 cell-based functional assay (calcium flux, potentiation of EC20 acetylcholine response). The conditions noted are these: for Emax / Emax at 30 µM: % ACh maximum at 30 μM, human M4; for EC50: CHO-K1 cells with human M4 and Gqi5, increase in EC20 acetylcholine response.

Here are results for 33 compounds from patent US10736898B2, “Positive allosteric modulators of the muscarinic acetylcholine receptor M4” (Vanderbilt University, priority 2017, dated 2020).

Method: Human M4 cDNA, along with the chimeric G protein Gqi5, were transfected into Chinese hamster ovary (CHO-K1) cells purchased from the American Type Culture Collection using commercially available Lipofectamine 2000 transfection reagent (Dalby, B. et al., Methods (2004) 33(2), 95-103). hM4-Gqi5 cells were grown in Ham's F-12 medium containing 10% heat-inactivated fetal bovine serum (FBS), 20 mM HEPES, 50 μg/mL G418 sulfate (CAS #108321-42-2), and 500 μg/mL Hygromycin B. rM4-Gqi5 cells were grown in DMEM containing 10% heat-inactivated FBS, 20 mM HEPES, 400 μg/mL G418 sulfate, and 500 μg/mL Hygromycin B.
For high throughput measurement of agonist-evoked increases in intracellular calcium, CHO-K1 cells stably expressing muscarinic receptors were plated in growth medium lacking G418 sulfate and hygromycin at 15,000 cells/20 μL/well in Greiner 384-well black-walled, tissue culture (TC)-treated, clear-bottom plates (VWR). Cells were incubated overnight at 37° C. and 5% CO2. The next day, cells were washed using an ELX 405 (BioTek) with assay buffer; the final volume was then aspirated to 20 μL. […] Dye was removed by washing with the ELX 405 and the final volume was aspirated to 20 μL. Compound master plates were formatted in an 11 point concentration-response curve (CRC) format (1:3 dilutions) in 100% DMSO with a starting concentration of 10 mM using a BRAVO liquid handler (Agilent). Test compound CRCs were then transferred to daughter plates (240 nL) using the Echo acoustic plate reformatter (Labcyte, Sunnyvale, Calif.) and then diluted into assay buffer (40 μL) to a 2× stock using a Thermo Fisher Combi (Thermo Fisher Scientific, Waltham, Mass.).
Calcium flux was measured using the Functional Drug Screening System (FDSS) 6000 or 7000 (Hamamatsu Corporation, Tokyo, Japan) as an increase in the fluorescent static ratio. Compounds were applied to cells (20 μL, 2×) using the automated system of the FDSS at 2-4 seconds into the protocol and the data were collected at 1 Hz. At 144 seconds, 10 μL of an EC20 concentration of the muscarinic receptor agonist acetylcholine was added (5×), followed by the addition of 12 μL of an EC80 concentration of acetylcholine at the 230 second time point (5×). Agonist activity was analyzed as a concentration-dependent increase in calcium mobilization upon compound addition. Positive allosteric modulator activity was analyzed as a concentration-dependent increase in the EC20 acetylcholine response. […] Antagonist activity was analyzed as a concentration-dependent decrease in the EC80 acetylcholine response. Concentration-response curves were generated using a four-parameter logistical equation in XLFit curve fitting software (IDBS, Bridgewater, N.J.) for Excel (Microsoft, Redmond, Wash.) or Prism (GraphPad Software, Inc., San Diego, Calif.).

For “5-chloro-2,4-dimethyl-8-pyrrolidin-1-yl-pyrido[4,5]thieno[1,2-b]pyrimidine [Compound 45]”, the Emax was determined as 60.9% and the EC50 is 0.693 µM. Taken in the same sequence, the figures for “5-chloro-N-[(3-fluoro-4-methoxy-phenyl)methyl]-2,4-dimethyl-pyrido[4,5]thieno[1,2-b]pyrimidin-8-amine [Compound 42]” were 60.5% and 0.723 µM. Regarding `Cc1nc(C)c2c(n1)sc1c(N3CCCC3)ncnc12` [Compound 2, 7,9-dimethyl-4-(pyrrolidin-1-yl)thieno[2,3-d:4,5-d′]dipyrimidine], the Emax at 30 µM is 51.7% and the EC50 was 0.288 µM. For `COc1ccc(CNc2ncnc3c2sc2nc(C)nc(C)c23)cc1F` [Compound 3, N-(3-fluoro-4-methoxybenzyl)-7,9-dimethylthieno[2,3-d:4,5-d′]dipyrimidin-4-amine] the same measures were 64.8% and 1.16 µM.

Regarding `Cc1nc(C)c2c(n1)sc1c(NC3CCCC3)ncnc12` [Compound 4, N-cyclopentyl-7,9-dimethylthieno[2,3-d:4,5-d′]dipyrimidin-4-amine], the maximal effect (Emax) at 30 µM amounted to 55.5% and the half-maximal effective concentration (EC50) was found to be 0.557 µM.

On to `[2H]C([2H])(Nc1ncnc2c1sc1nc(C)nc(C)c12)c1ccc(C(C)(C)O)cc1` [Compound 5, 2-(4-(((7,9-dimethylthieno[2,3-d:4,5-d′]dipyrimidin-4-yl)amino)methyl-d2)phenyl)propan-2-ol], for which the Emax at 30 µM worked out at 79.3% and the EC50 is 1.37 µM. For `Cc1nc(C)c2c(n1)sc1c(NCc3ccc(C4(O)CCC4)cc3)ncnc12` [Compound 6, 1-(4-(((7,9-dimethylthieno[2,3-d:4,5-d′]dipyrimidin-4-yl)amino)methyl)phenyl)cyclobutan-1-ol] the same measures were 81.3% and 2.02 µM. Taken in the same sequence, the figures for `Cc1nc(C)c2c(n1)sc1c(NCc3ccc(C(C)(O)C4CC4)cc3)ncnc12` (centres unmarked) [Compound 7, 1-cyclopropyl-1-(4-(((7,9-dimethylthieno[2,3-d:4,5-d′]dipyrimidin-4-yl)amino)methyl)phenyl)ethan-1-ol] were 71.2% and 2.09 µM. Take `Cc1nc(C)c2c(n1)sc1c(N3CC4CC4C3)ncnc12` (centres unmarked) [Compound 8, 4-(3-azabicyclo[3.1.0]hexan-3-yl)-7,9-dimethylthieno[2,3-d:4,5-d′]dipyrimidine]: the Emax at 30 µM came to 75.5% and the concentration for a half-maximal effect (EC50) was found to be 0.156 µM. Taken in the same sequence, the figures for `Cc1nc(C)c2c(n1)sc1c(N3CCOCC3)ncnc12` [Compound 9, 4-(7,9-dimethylthieno[2,3-d:4,5-d′]dipyrimidin-4-yl)morpholine] were 39.1% and 5.57 µM. For `Cc1nc(C)c2c(n1)sc1c(N3CC4(COC4)C3)ncnc12` [Compound 10, 6-(7,9-dimethylthieno[2,3-d:4,5-d′]dipyrimidin-4-yl)-2-oxa-6-azaspiro[3.3]heptane] the same measures were 76% and 1.58 µM.

In the case of `Cc1nc(C)c2c(n1)sc1c(N3CCCC3)nccc12` [Compound 11, 2,4-Dimethyl-8-(pyrrolidin-1-yl)pyrido[4′,3′:4,5]thieno[2,3-d]pyrimidine], the Emax at 30 µM was 77% and the EC50 stood at 0.073 µM. Taken in the same sequence, the figures for `Cc1nc(C)c2c(n1)sc1c(N3CCCCC3)nccc12` [Compound 12, 2,4-dimethyl-8-(1-piperidyl)pyrido[4′,3′:4,5]thieno[2,3-d]pyrimidine] were 57.9% and 0.073 µM.

Consider `COc1ccc(CNc2nccc3c2sc2nc(C)nc(C)c23)cc1F` [Compound 13, N-(3-fluoro-4-methoxybenzyl)-2,4-dimethylpyrido[4′,3′:4,5]thieno[2,3-d]pyrimidin-8-amine], for which the Emax at 30 µM worked out at 84.4% and the EC50 was found to be 0.169 µM. For the compound `Cc1nc(C)c2c(n1)sc1c(NCc3ccc(C(C)(C)O)cc3)nccc12` [Compound 14, 2-(4-(((2,4-dimethylpyrido[4′,3′:4,5]thieno[2,3-d]pyrimidin-8-yl)amino)methyl)phenyl)propan-2-ol], the Emax at 30 µM was 80.5%. For the compound `Cc1nc(C)c2c(n1)sc1c(NC3CCCC3)nccc12` [Compound 15, N-cyclopentyl-2,4-dimethylpyrido[4′,3′:4,5]thieno[2,3-d]pyrimidin-8-amine], the Emax at 30 µM is 73.3% and the concentration giving a half-maximal response (EC50) worked out at 0.134 µM. On to `Cc1nc(C)c2c(n1)sc1c(N3CCC3)ncnc12` [Compound 16, 4-(azetidin-1-yl)-7,9-dimethylthieno[2,3-d:4,5-d′]dipyrimidine], for which the maximal response (Emax) at 30 µM worked out at 59.9% and the EC50 is 1.44 µM. Taken in the same sequence, the figures for `Cc1nc(C)c2c(n1)sc1c(N3CC4(C3)CC(F)(F)C4)ncnc12` [Compound 17, 4-(6,6-difluoro-2-azaspiro[3.3]heptan-2-yl)-7,9-dimethylthieno[2,3-d:4,5-d′]dipyrimidine] were 42.9% and 0.185 µM.

Turning to `Cc1nc(C)c2c(n1)sc1c(N3CCC(F)(F)C3)ncnc12` [Compound 18, 4-(3,3-difluoropyrrolidin-1-yl)-7,9-dimethylthieno[2,3-d:4,5-d′]dipyrimidine], the Emax at 30 µM was determined as 76.9% and the EC50 was found to be 0.635 µM. For `Cc1nc(C)c2c(n1)sc1c(N3CC[C@H](F)C3)ncnc12` [Compound 19, (S)-4-(3-fluoropyrrolidin-1-yl)-7,9-dimethylthieno[2,3-d:4,5-d′]dipyrimidine] the same measures were 62.4% and 1.06 µM. Taken in the same sequence, the figures for `Cc1nc(C)c2c(n1)sc1c(N3CC[C@@H](F)C3)ncnc12` [Compound 20, (R)-4-(3-fluoropyrrolidin-1-yl)-7,9-dimethylthieno[2,3-d:4,5-d′]dipyrimidine] were 71.5% and 0.791 µM.

Turning to `Cc1nc(C)c2c(n1)sc1c(N3CCC(F)(F)CC3)ncnc12` [Compound 21, 4-(4,4-difluoropiperidin-1-yl)-7,9-dimethylthieno[2,3-d:4,5-d′]dipyrimidine], the Emax at 30 µM is 52.6% and the EC50 worked out at 1.41 µM. For `Cc1nc(C)c2c(n1)sc1c(NCc3ccc(C(C)(C)O)cc3F)nccc12` [Compound 22, 2-[4-[[(2,4-dimethylpyrido[4,5]thieno[1,2-b]pyrimidin-8-yl)amino]methyl]-3-fluoro-phenyl]propan-2-ol] the same measures were 88.7% and 0.84 µM. Taken in the same sequence, the figures for `CCN(CC)C(=O)c1ccc(CNc2nccc3c2sc2nc(C)nc(C)c23)cc1` [Compound 23, 4-[[(2,4-dimethylpyrido[4,5]thieno[1,2-b]pyrimidin-8-yl)amino]methyl]-N,N-diethyl-benzamide] were 78.8% and 4.24 µM. Turning to `CCN(CC)c1nccc2c1sc1nc(C)nc(C)c12` [Compound 24, N,N-diethyl-2,4-dimethyl-pyrido[4,5]thieno[1,2-b]pyrimidin-8-amine], the Emax at 30 µM is 37.7% and the EC50 was over 10 µM. For `Cc1nc(C)c2c(n1)sc1c(N3CCC(F)(F)C3)nccc12` [Compound 25, 8-(3,3-difluoropyrrolidin-1-yl)-2,4-dimethyl-pyrido[4,5]thieno[1,2-b]pyrimidine] the same measures were 94.6% and 0.042 µM.

In the case of `Cc1nc(C)c2c(n1)sc1c(NC3CCC3)nccc12` [Compound 26, N-cyclobutyl-2,4-dimethyl-pyrido[4,5]thieno[1,2-b]pyrimidin-8-amine], the Emax at 30 µM came out at 94.8% and the EC50 is 0.3 µM. As for `Cc1nc(C2CC2)nc2sc3c(NCc4ccc(C(C)(C)O)c(F)c4)nccc3c12` [Compound 27, 2-[4-[[(2-cyclopropyl-4-methyl-pyrido[4,5]thieno[1,2-d]pyrimidin-8-yl)amino]methyl]-2-fluoro-phenyl]propan-2-ol], the Emax at 30 µM worked out at 86.4% and the EC50 worked out at 2.27 µM. For `Cc1nc(C2CC2)nc2sc3c(NCc4ccc(C(C)(C)O)cc4)nccc3c12` [Compound 28, 2-[4-[[(2-cyclopropyl-4-methyl-pyrido[4,5]thieno[1,2-d]pyrimidin-8-yl)amino]methyl]phenyl]propan-2-ol] the same measures were 97% and 1.39 µM. Consider `Cc1nc(C2CC2)nc2sc3c(NCc4ccc(F)c(F)c4)nccc3c12` [Compound 29, 2-cyclopropyl-N-[(3,4-difluorophenyl)methyl]-4-methyl-pyrido[4,5]thieno[1,2-d]pyrimidin-8-amine], for which the maximum response (Emax) at 30 µM came out at 62.4% and the EC50 came to 6.69 µM.

As for `Cc1nc(C2CC2)nc2sc3c(N4CCOCC4)nccc3c12` [Compound 30, 4-(2-cyclopropyl-4-methyl-pyrido[4,5]thieno[1,2-d]pyrimidin-8-yl)morpholine], the Emax at 30 µM was 74.2% and the half-maximal effective concentration (EC50) came to 0.449 µM. For `Cc1nc(C)c2c(n1)sc1c(NCc3ccc(C(C)(C)O)c(F)c3)nccc12` [Compound 31, 2-[4-[[(2,4-dimethylpyrido[4,5]thieno[1,2-b]pyrimidin-8-yl)amino]methyl]-2-fluoro-phenyl]propan-2-ol], the Emax at 30 µM worked out at 85.8% and the EC50 is 0.237 µM. As to `Cc1nc(C2CC2)nc2sc3c(NC4CC4)nccc3c12` [Compound 32, N,2-dicyclopropyl-4-methyl-pyrido[4,5]thieno[1,2-d]pyrimidin-8-amine], the Emax at 30 µM was found to be 103% and the EC50 turned out to be 0.129 µM.
